Measured values as given in patent publication EP0240717A2, “Prevention of mammary carcinoma” (The Board of Regents of the University of Nebraska, priority 1986, dated 1987).

Columns and labels:
breast carcinoma = conditions: cited from earlier work; for percent of the rats developed cancer in 7 months / percent of the rats developed cancer in one year: rats treated with drug and a carcinogen; for percent of the rats developed cancer in 7 months: incidence at 7 months; for percent of the rats developed cancer in one year: incidence at one year; for lifetime effect in reducing the appearance of breast carcinoma: treated rats compared to other rats receiving carcinogen at the same time
[1] = tested on: breast cancers induced by a carcinogenic chemical; conditions: cited from earlier work
[2] = in animals; cited from earlier work
mammary carcinoma = experiment: Anti-mammary carcinogenic activity in female rats fed DMBA, hormone given by pellet or minipump; format: in vivo, Sprague-Dawley rats; conditions: doses that do not have undesirable side effects
Procedure: In tests for anti-mammary carcinogenic activity following the feeding of carcinogen to mammals, ten different estrogenic compounds were implanted in female rats fed a carcinogen. The incidence of breast cancer for each compound was determined. Rats receiving only the carcinogen were used as controls. Ethynyl estriol was obtained from Eli Lilly, Inc., Greenfield, Indiana; the other estrogens were obtained from Sigma, Inc., St. Louis, Missouri, or Steraloids, Inc., Wilton, New Hampshire.
In all of the tests, intact female Sprague-Dawley rats, obtained from Sasco, Inc., Omaha, Nebraska, at 50 to 55 days of age were used.
They were: (1) randomized upon receipt; (2) housed individually in suspended cages; (3) fed Purina Lab Chow and distilled water; and (4) the temperature was maintained within 22-23 degrees and 40-50 percent relative humidity. […]
Rats free of neoplasms were followed for one year. […] Significant differences in cancer incidence between treated and controlled groups were determined.
The differences in cancer incidence between treated and controlled groups in each experiment were determined by X2 using the Yate's correction. […] The significance of difference in mammary-carcinoma-free survival in rate-days was determined for these groups at 210 days after DMBA administration using the Mann-Whitney U Test. […]

[3] = in vitro by tissues; cited from earlier work

Row | SMILES | percent of the rats developed cancer in 7 months (breast carcinoma) [%] | percent of the rats developed cancer in one year (breast carcinoma) [%] | also measured
1 | CC/C(=C(/CC)c1ccc(O)cc1)c1ccc(O)cc1 [diethylstilbestrol] | 88 | 100 | –
2 | C[C@]12CC[C@@H]3c4ccc(O)cc4CC[C@H]3[C@@H]1C[C@@H](O)[C@@H]2O [estriol] | 26 | 63 | inhibiting the development of breast cancers [1]: moderately effective
3 | C[C@]12CC[C@@H]3c4cc(O)c(O)cc4CC[C@H]3[C@@H]1CC[C@@H]2O [2-OH estradiol 17 beta] | 78 | 94 | –
4 | C#C[C@]1(O)CC[C@H]2[C@@H]3CCc4cc(O)ccc4[C@H]3CC[C@@]21C [17 alpha ethynyl estradiol 17 beta] | 90 | 100 | –
5 | C#C[C@]1(O)CC[C@H]2[C@@H]3CCc4cc(O)ccc4[C@H]3[C@@H](OC)C[C@@]21C [11 beta methoxy 17 alpha ethynyl estradiol 17 beta] | – | – | carcinogenicity [2]: carcinogenic in animals
6 | C#C[C@]1(O)[C@H](O)C[C@H]2[C@@H]3CCc4cc(O)ccc4[C@H]3CC[C@@]21C [17 alpha ethynyl estriol] | – | – | risk of mammary carcinoma (mammary carcinoma): reduce the risk of mammary carcinoma
7 | CC/C(=C(\c1ccccc1)c1ccc(OCCN(C)C)cc1)c1ccccc1 [tamoxifen] | 78 | 89 | –
8 | COc1ccc2c(c1)CC[C@@H]1[C@@H]2CC[C@]2(C)[C@@H](O)[C@H](O)C[C@@H]12 [estriol 3-methyl ether] | – | – | lifetime effect in reducing the appearance of breast carcinoma (breast carcinoma): 30-50%
9 | C[C@]12CCc3c(ccc4cc(O)ccc34)[C@@H]1CCC2=O [d-equilenin] | – | – | position of oxidation [3]: almost exclusively at the C4 (R1) position
10 | C[C@]12CC[C@@H]3c4ccc(O)cc4C(=O)C[C@H]3[C@@H]1CC[C@@H]2O [6 keto estradiol, 6-keto estradiol 17 beta] | 31 | 61 | lifetime effect in reducing the appearance of breast carcinoma (breast carcinoma): 30-50%
